Measured values reported in ChEMBL document CHEMBL5143626, “Marine Natural Products as Leads against SARS-CoV-2 Infection” (J Nat Prod, 2022).
Activity calls are given as the source filed them. The rule behind the calls is not given here.

What was measured:
SARS-CoV-2 [1] = assay: Antiviral activity against SARS-CoV-2 isolate USA-WA1/2020 infected in Calu-3 cells at 10 uM preincubated for 24 hrs followed by viral infection and measured after 48 hrs by Hoechst 33342 staining based microscopic method; assay type: functional, organism-based; details: Severe acute respiratory syndrome coronavirus 2, time 72.0 hrs
SARS-CoV-2 [2] = assay: Antiviral activity against SARS-CoV-2 isolate USA-WA1/2020 infected in Calu-3 cells at 1 uM preincubated for 24 hrs followed by viral infection and measured after 48 hrs by Hoechst 33342 staining based microscopic method; assay type: functional, organism-based; details: Severe acute respiratory syndrome coronavirus 2, time 72.0 hrs
SARS-CoV-2 [3] = assay: Antiviral activity against SARS-CoV-2 isolate USA-WA1/2020 infected in Calu-3 cells preincubated for 24 hrs followed by viral infection and measured after 48 hrs by Hoechst 33342 staining based microscopic method; assay type: functional, organism-based; details: Severe acute respiratory syndrome coronavirus 2, USA-WA1/2020, Calu-3
Calu-3 = assay: (§1) Cytotoxicity against human Calu-3 cells assessed as reduction in cell viability; assay type: toxicity, cell-based; details: calu-3
SARS-CoV-2 [4] = assay: Antiviral activity against SARS-CoV-2 isolate USA-WA1/2020 infected in Calu-3 cells assessed at 0.5 uM preincubated for 24 hrs followed by viral infection and measured after 48 hrs by Hoechst 33342 staining based microscopic method relative to control; assay type: functional, organism-based; details: Severe acute respiratory syndrome coronavirus 2, time 72.0 hrs
SARS-CoV-2 [5] = assay: Antiviral activity against SARS-CoV-2 isolate USA-WA1/2020 infected in Calu-3 cells at 2.8 uM preincubated for 24 hrs followed by viral infection and measured after 48 hrs by Hoechst 33342 staining based microscopic method; assay type: functional, organism-based; details: Severe acute respiratory syndrome coronavirus 2, time 72.0 hrs
[6] = as §1; assay type: toxicity, cell-based; details: Calu-3 cells
SARS-CoV-2 [7] = assay: Antiviral activity against SARS-CoV-2 isolate USA-WA1/2020 infected in human Primary bronchial epithelial cells assessed as reduction in viral RNA replication at 2.8 uM preincubated for 1 hr followed by viral infection and measured after 48 hrs by qRT-PCR method relative to control; assay type: functional, Severe acute respiratory syndrome coronavirus 2, Primary bronchial epithelial cell; parameters: scale not given: the % may be the effect or the level left; details: time 49 hrs

With C[C@H]1CC[C@H]2C(C)(C)CCC[C@]23Oc2ccc(O)cc2C[C@]13C [AUREOL] the Activity (SARS-CoV-2 [1]) was “Active”, the Activity (SARS-CoV-2 [2]) was “Active” and the EC50 (SARS-CoV-2 [3]) was 4 µM. It also gave a CC50 (Calu-3) greater than 10 µM.
With CCC(CC)COC(=O)[C@H](C)N[P@](=O)(OC[C@H]1O[C@@](C#N)(c2ccc3c(N)ncnn23)[C@H](O)[C@@H]1O)Oc1ccccc1 [REMDESIVIR] the EC50 (SARS-CoV-2 [3]) was 0.3 µM and the CC50 (Calu-3) was greater than 5 µM.
For CC(C)=CCC[C@@H](C)[C@H]1CC[C@@]2(C(=O)O)C3=C(CC[C@]12C)[C@@]1(C)CC[C@H](O[C@@H]2OC[C@H](O)[C@H](O[C@@H]4OC[C@H](O)[C@H](O[C@@H]5O[C@H](CO)[C@H](O)[C@H](O)[C@H]5O)[C@H]4O)[C@H]2O[C@@H]2O[C@H](CO)[C@H](O)[C@H](O)[C@H]2O)C(C)(C)C1CC3 (stereo partly specified), the Activity (SARS-CoV-2 [2]) was “Active”.
With CC1=C2Cc3cc(ccc3O)C(=O)O[C@H](C(C)(C)Br)CC[C@](C)(O)[C@H](Br)CC[C@]2(C)[C@@H](Br)CC1 the Activity (SARS-CoV-2 [1]) was “Active”, the Activity (SARS-CoV-2 [2]) was “Active” and the EC50 (SARS-CoV-2 [3]) was 6.9 µM. The CC50 (Calu-3) was greater than 10 µM.
In the case of CC(=O)C[C@]1(O)c2ccccc2-[n+]2ccc3c([nH]c4ccccc43)c21.O=C([O-])C(F)(F)F, the Activity (SARS-CoV-2 [4]) is reported as “Active”, the Activity (SARS-CoV-2 [5]) is reported as “Active” and the EC50 (SARS-CoV-2 [3]) is reported as 1.1 µM. It also gave a CC50 [6] of 5 µM and an Activity (SARS-CoV-2 [7]) greater than 90%.
